Measured values published in patent US20230310428A1, “EGFR INHIBITOR AND PREPARATION METHOD AND USE THEREOF” (HONGYUN BIOTECH CO., LTD., priority 2020, published 2023).

Key:
Test in all cases: Growth inhibitory activity of compounds on BaF3 cell lines stably transfected with kinase (MTS, 48 h)
Type in all cases: cell-based
[1] = biological target: T1, various mutants of kinase EGFR (BaF3 cell lines stably transfected with kinase) (Homo sapiens, UniProt P00533); settings: BaF3 cells stably transfected with EGFR Δ19Del, read-out: IC50, growth inhibition, Δ19Del
T1 construct: other: BaF3 cells stably transfected with EGFR Δ19Del; MTS, 48 h; other: BaF3 cell line stably transfected with EGFR Δ19Del
Method: (§1) The activity of compounds against various mutants of kinase EGFR was evaluated by their effect of inhibiting growth of BaF3 cell lines stably transfected with kinase. The specific test method was given as follows:
(§2) 1) Culture medium: DMEM (Dulbecco’s modified eagle medium) or RPMI 1640 (containing 10% fetal bovine serum, 100 µg/mL ampicillin, 100 µg/mL streptomycin).
(§3) 2) Reagent: MTS reaction solution (containing 2 mg/mL of MTS [3-(4,5-dimethylthiazol-2-yl)-5-(3-carboxymethoxyphenyl)-2-(4-sulfophenyl)-2H-tetrazoliu m, inner Salt]; 100 µg/mL of PES ([…])).
(§4) 3) Compound test: cells were incubated into a 96-well culture plate, the volume of cytosol was 90 µL, and then 10 µL of the compound at each gradient concentration was added. That is, the highest concentration was 10 µM, which was diluted stepwise by ⅓, and 8 concentration points were set in total; 0.1% DMSO (dimethyl sulfoxide) was contained in the system. The cell plate with uniformly mixed compound was cultured in a cell culture incubator (37° C.; 5% CO2) for 48 h, then 20 µL of MTS reaction solution was added, uniformly mixed and incubated in the cell culture incubator (37° C.; 5% CO2) for 1-4 h. OD values at 490 nm were measured by a microplate reader (VARIOSKAN FLASH, Thermo). Two parallels were set in each group of experiments, with 0.1% (a final concentration) DMSO as a negative control, and a culture medium without cells and compounds as a blank control. The cell growth inhibition rate was calculated by the following formula: […]
(§5) 4) IC50 calculation: The semi-inhibitory concentration of the compounds acting on cells was calculated using GradPad Prism 5 software according to the measured cell growth inhibition rate.

[2] = biological target: T2, various mutants of kinase EGFR (BaF3 cell lines stably transfected with kinase) (Homo sapiens, UniProt P00533, L858R/T790M); settings: BaF3 cells stably transfected with EGFR L858R/T790M, read-out: IC50, growth inhibition, L858R/T790M
T2 construct: expressed in transfected cells; host or cells: BaF3
Method: as §1, §2, §3, §4, §5

[3] = biological target: T3, various mutants of kinase EGFR (BaF3 cell lines stably transfected with kinase) (Homo sapiens, UniProt P00533, L858R); settings: BaF3 cells stably transfected with EGFR L858R, read-out: IC50, growth inhibition, L858R
T3 construct: expressed in transfected cells; host or cells: BaF3
Method: as §1, §2, §3, §4, §5

[4] = biological target: T4, various mutants of kinase EGFR (BaF3 cell lines stably transfected with kinase) (Homo sapiens, UniProt P00533, T790M, form not given); settings: BaF3 cells stably transfected with EGFR Δ19Del/T790M, read-out: IC50, growth inhibition, Δ19Del/T790M
T4 construct: other: BaF3 cells stably transfected with EGFR Δ19Del/T790M; MTS, 48 h; other: BaF3 cell line stably transfected with EGFR Δ19Del/T790M; MTS, 48
Method: as §1, §2, §3, §4, §5

[5] = biological target: T5, various mutants of kinase EGFR (BaF3 cell lines stably transfected with kinase) (Homo sapiens, UniProt P00533, C797S/L858R/T790M); settings: BaF3 cells stably transfected with EGFR L858R/T790M/C797S, read-out: IC50, growth inhibition, L858R/T790M/C797S
T5 construct: expressed in transfected cells; host or cells: BaF3
Method: as §1, §2, §3, §4, §5

[6] = biological target: T6, various mutants of kinase EGFR (BaF3 cell lines stably transfected with kinase) (Homo sapiens, UniProt P00533, T790M/C797S, form not given); settings: BaF3 cells stably transfected with EGFR Δ19Del/T790M/C797S, read-out: IC50, growth inhibition, Δ19Del/T790M/C797S
T6 construct: other: BaF3 cells stably transfected with EGFR Δ19Del/T790M/C797S; MTS, 48; other: BaF3 cell line stably transfected with EGFR Δ19Del/T790M/C7
Method: as §1, §2, §3, §4, §5

T4 sequence (P00533 with tags, fused parts or gaps DEL746-750/T790M, form open): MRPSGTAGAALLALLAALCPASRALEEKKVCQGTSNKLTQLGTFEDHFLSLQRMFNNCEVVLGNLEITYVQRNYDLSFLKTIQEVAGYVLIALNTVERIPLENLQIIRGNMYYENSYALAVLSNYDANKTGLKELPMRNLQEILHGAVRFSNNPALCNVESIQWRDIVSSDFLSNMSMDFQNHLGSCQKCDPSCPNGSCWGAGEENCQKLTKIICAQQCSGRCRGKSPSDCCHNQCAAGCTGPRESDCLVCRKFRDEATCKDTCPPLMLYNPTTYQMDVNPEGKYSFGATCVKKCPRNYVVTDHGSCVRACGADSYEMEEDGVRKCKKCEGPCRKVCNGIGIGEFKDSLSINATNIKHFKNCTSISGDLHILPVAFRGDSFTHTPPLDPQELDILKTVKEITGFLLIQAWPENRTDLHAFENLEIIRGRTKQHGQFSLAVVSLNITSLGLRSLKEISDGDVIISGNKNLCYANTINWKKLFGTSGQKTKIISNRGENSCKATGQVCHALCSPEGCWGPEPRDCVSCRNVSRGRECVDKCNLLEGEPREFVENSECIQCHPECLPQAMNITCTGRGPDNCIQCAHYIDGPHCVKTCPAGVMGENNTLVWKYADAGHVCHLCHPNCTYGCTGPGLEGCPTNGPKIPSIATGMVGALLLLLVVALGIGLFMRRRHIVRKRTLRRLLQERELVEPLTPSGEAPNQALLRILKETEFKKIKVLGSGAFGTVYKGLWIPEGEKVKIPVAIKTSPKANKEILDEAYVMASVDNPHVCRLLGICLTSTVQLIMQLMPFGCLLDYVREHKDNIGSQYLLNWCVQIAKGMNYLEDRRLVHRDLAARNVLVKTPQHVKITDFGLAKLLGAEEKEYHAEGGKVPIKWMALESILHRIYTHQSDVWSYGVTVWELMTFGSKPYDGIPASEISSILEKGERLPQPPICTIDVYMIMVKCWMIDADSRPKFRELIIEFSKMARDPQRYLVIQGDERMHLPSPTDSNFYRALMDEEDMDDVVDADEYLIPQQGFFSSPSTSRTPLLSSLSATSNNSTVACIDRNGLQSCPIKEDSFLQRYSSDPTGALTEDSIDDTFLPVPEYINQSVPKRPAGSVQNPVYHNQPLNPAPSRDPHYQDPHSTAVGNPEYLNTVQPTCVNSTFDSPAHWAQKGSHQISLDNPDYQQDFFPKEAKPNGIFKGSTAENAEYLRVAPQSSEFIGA
T6 sequence (P00533 with tags, fused parts or gaps DEL746-750/T790M/C797S, form open): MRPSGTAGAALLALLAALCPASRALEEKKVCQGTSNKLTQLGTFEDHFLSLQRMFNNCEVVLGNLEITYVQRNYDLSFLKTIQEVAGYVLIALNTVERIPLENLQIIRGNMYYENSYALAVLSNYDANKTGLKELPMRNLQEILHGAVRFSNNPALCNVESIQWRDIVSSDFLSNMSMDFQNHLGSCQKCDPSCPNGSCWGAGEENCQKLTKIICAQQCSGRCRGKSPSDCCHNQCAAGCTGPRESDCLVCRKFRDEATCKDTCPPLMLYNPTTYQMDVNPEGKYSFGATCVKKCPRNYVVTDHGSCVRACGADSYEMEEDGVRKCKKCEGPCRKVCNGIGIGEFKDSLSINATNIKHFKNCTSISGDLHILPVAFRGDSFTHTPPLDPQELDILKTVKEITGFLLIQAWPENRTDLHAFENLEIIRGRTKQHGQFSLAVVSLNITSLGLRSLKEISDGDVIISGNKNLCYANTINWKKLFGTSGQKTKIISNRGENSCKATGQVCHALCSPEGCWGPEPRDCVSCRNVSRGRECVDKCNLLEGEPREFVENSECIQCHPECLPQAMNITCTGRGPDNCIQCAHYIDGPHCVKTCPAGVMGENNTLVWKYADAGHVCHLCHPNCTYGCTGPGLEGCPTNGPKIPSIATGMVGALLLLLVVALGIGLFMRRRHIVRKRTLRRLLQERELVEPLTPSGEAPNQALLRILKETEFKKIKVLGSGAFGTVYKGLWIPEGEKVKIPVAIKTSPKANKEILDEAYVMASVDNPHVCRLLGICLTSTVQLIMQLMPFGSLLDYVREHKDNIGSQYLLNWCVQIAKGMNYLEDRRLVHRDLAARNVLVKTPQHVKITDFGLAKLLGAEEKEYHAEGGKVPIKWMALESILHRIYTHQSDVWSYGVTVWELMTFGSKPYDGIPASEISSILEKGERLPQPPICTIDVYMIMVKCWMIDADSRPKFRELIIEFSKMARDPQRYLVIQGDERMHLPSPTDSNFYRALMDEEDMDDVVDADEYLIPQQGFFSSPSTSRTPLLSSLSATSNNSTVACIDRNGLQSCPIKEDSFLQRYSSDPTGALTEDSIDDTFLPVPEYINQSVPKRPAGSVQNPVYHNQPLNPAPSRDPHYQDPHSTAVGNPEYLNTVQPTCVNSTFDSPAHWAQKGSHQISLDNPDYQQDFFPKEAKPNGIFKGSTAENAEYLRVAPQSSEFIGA
T2 sequence (P00533 25-1210 T790M/L858R): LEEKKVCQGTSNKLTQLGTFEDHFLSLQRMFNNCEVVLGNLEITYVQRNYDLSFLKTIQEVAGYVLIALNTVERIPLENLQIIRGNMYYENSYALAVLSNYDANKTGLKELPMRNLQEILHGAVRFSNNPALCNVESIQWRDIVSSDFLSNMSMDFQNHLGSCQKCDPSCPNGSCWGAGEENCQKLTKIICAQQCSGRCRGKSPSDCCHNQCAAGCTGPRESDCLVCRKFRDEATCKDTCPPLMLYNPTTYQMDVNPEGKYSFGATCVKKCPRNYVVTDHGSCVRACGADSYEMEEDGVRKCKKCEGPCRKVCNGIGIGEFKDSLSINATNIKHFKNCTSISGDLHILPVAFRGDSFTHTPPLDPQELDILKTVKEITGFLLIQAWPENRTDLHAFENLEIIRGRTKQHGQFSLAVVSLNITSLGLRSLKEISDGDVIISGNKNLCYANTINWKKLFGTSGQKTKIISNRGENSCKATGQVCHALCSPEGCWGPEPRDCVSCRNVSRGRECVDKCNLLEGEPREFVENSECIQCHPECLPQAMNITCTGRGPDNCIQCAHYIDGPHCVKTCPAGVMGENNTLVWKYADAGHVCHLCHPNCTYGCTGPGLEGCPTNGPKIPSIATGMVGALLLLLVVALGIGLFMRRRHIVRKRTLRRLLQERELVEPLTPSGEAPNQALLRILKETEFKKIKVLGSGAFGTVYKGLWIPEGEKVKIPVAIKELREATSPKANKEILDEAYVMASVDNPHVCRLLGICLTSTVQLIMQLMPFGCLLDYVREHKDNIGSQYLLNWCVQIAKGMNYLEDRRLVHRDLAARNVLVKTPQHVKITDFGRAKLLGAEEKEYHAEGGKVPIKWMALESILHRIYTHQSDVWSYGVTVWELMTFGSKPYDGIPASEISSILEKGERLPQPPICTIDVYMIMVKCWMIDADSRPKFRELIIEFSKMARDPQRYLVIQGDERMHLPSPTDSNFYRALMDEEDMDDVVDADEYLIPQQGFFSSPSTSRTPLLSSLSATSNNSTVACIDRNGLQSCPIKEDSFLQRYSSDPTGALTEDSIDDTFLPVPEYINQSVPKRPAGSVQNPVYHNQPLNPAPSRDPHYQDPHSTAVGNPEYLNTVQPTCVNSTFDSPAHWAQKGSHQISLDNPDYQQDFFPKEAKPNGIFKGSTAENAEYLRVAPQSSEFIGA
T3 sequence (P00533 25-1210 L858R): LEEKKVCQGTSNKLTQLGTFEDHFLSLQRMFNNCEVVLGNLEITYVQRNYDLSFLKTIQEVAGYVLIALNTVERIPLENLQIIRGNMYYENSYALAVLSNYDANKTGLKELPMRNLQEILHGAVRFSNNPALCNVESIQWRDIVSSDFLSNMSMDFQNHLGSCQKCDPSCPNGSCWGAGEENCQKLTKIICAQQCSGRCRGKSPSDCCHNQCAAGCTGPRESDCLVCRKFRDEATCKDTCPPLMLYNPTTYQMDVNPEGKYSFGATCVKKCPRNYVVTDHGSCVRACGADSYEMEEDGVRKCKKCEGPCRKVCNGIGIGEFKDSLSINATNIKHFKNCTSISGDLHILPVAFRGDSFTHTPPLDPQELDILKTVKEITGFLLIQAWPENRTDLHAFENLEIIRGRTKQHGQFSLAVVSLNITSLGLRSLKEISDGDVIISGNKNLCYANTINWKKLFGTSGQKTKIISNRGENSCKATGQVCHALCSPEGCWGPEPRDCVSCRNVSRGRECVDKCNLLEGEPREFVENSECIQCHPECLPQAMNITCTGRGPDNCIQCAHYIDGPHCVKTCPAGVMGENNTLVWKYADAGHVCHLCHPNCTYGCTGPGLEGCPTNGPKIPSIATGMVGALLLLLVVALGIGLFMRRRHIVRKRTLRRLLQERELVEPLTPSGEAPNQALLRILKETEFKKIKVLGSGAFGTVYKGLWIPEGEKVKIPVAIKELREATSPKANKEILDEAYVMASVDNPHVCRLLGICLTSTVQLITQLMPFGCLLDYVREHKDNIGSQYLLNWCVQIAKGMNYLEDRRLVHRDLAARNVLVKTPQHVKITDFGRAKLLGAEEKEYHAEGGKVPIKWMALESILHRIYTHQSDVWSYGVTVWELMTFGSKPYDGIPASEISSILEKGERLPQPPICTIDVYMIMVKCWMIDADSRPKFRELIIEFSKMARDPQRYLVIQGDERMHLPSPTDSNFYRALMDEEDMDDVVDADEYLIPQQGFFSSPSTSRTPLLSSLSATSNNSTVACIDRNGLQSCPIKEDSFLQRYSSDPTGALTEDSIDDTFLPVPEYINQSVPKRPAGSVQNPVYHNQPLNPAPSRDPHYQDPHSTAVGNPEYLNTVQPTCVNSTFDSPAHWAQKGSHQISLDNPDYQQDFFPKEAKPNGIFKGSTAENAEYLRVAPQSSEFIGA

Structure (SMILES)	IC50 [1] [nM]	IC50 [2] [nM]	IC50 [3] [nM]	IC50 [4] [nM]	IC50 [5] [nM]	IC50 [6] [nM]
COc1cc(N2CCC(N3CCN(C)CC3)CC2)ccc1Nc1ncc(Br)c(Nc2ccc3nccnc3c2N(C)S(C)(=O)=O)n1 [Compound I-1]	≤ 50	≤ 50	≤ 50	≤ 50	≤ 50	≤ 50
COc1cc(N2CCC(N3CCN(C)CC3)CC2)c(C)cc1Nc1ncc(Br)c(Nc2ccc3nccnc3c2N(C)S(C)(=O)=O)n1 [Compound I-2]	≤ 50	≤ 50	≤ 50	≤ 50	≤ 50	≤ 50
CCc1cc(Nc2ncc(Br)c(Nc3ccc4nccnc4c3N(C)S(C)(=O)=O)n2)c(OC)cc1N1CCC(N2CCN(C)CC2)CC1 [Compound I-3]	≤ 50	≤ 50	≤ 50	≤ 50	≤ 50	≤ 50
COc1nc(N2CCC(N3CCN(C)CC3)CC2)ccc1Nc1ncc(Br)c(Nc2ccc3nccnc3c2N(C)S(C)(=O)=O)n1 [Compound I-4]	50 to 500	50 to 500	50 to 500	50 to 500	50 to 500	≤ 50
CCc1cc(Nc2ncc(Br)c(Nc3ccc4nccnc4c3N(C)S(C)(=O)=O)n2)c(OC)nc1N1CCC(N2CCN(C)CC2)CC1 [Compound I-6]	50 to 500	≤ 50	≤ 50	≤ 50	≤ 50	≤ 50
CN1CCN(C2CCN(c3ccc(Nc4ncc(Br)c(Nc5ccc6nccnc6c5N(C)S(C)(=O)=O)n4)c(OC(F)(F)F)c3)CC2)CC1 [Compound I-7]	50 to 500	50 to 500	50 to 500	50 to 500	50 to 500	≤ 50
C=Cc1cc(Nc2ncc(Br)c(Nc3ccc4nccnc4c3N(C)S(C)(=O)=O)n2)c(OC(F)(F)F)cc1N1CCC(N2CCN(C)CC2)CC1 [Compound I-9]	≤ 50	≤ 50	≤ 50	≤ 50	≤ 50	≤ 50
COc1cc(N2CCC(N3CCN(C)CC3)CC2)c(CC2CC2)cc1Nc1ncc(Br)c(Nc2ccc3nccnc3c2N(C)S(C)(=O)=O)n1 [Compound I-10]	50 to 500	≤ 50	≤ 50	≤ 50	≤ 50	≤ 50
COc1cc(N2CCC(N3CCN(C)CC3)CC2)c(Cc2ccccc2)cc1Nc1ncc(Br)c(Nc2ccc3nccnc3c2N(C)S(C)(=O)=O)n1 [Compound I-11]	500 to 2500	500 to 2500	50 to 500	500 to 2500	500 to 2500	500 to 2500
COc1cc(N2CCN(C)CC2)c(C)cc1Nc1ncc(Br)c(Nc2ccc3nccnc3c2N(C)S(C)(=O)=O)n1 [Compound I-12]	50 to 500	≤ 50	≤ 50	≤ 50	≤ 50	≤ 50
COc1cc(N2CCC(N(C)C)CC2)c(C)cc1Nc1ncc(Br)c(Nc2ccc3nccnc3c2N(C)S(C)(=O)=O)n1 [Compound I-13]	≤ 50	≤ 50	≤ 50	≤ 50	≤ 50	≤ 50
COc1cc(N2CCC(N(C)C)C2)c(C)cc1Nc1ncc(Br)c(Nc2ccc3nccnc3c2N(C)S(C)(=O)=O)n1 (stereo not drawn) [Compound I-14]	50 to 500	≤ 50	≤ 50	≤ 50	≤ 50	≤ 50
CCc1cc(Nc2ncc(Br)c(Nc3ccc4nccnc4c3N(C)S(C)(=O)=O)n2)c(OC)cc1N1CCN(C)CC1 [Compound I-15]	≤ 50	≤ 50	≤ 50	≤ 50	≤ 50	≤ 50
CCc1cc(Nc2ncc(Br)c(Nc3ccc4nccnc4c3N(C)S(C)(=O)=O)n2)c(OC)cc1N1CCC(N(C)C)CC1 [Compound I-16]	≤ 50	≤ 50	≤ 50	≤ 50	≤ 50	≤ 50
CCc1cc(Nc2ncc(Br)c(Nc3ccc4nccnc4c3N(C)S(C)(=O)=O)n2)c(OC)cc1N1CCC(N(C)C)C1 (stereo not drawn) [Compound I-17]	≤ 50	≤ 50	≤ 50	≤ 50	≤ 50	≤ 50
COc1cc(N2CCC(N3CCN(C)CC3)CC2)ccc1Nc1ncc(Cl)c(Nc2ccc3nccnc3c2N(C)S(C)(=O)=O)n1 [Compound I-18]	50 to 500	≤ 50	50 to 500	50 to 500	50 to 500	50 to 500
COc1cc(N2CCC(N3CCN(C)CC3)CC2)c(C)cc1Nc1ncc(Cl)c(Nc2ccc3nccnc3c2N(C)S(C)(=O)=O)n1 [Compound I-19]	≤ 50	≤ 50	≤ 50	≤ 50	≤ 50	≤ 50
CCc1cc(Nc2ncc(Cl)c(Nc3ccc4nccnc4c3N(C)S(C)(=O)=O)n2)c(OC)cc1N1CCC(N2CCN(C)CC2)CC1 [Compound I-20]	≤ 50	≤ 50	≤ 50	≤ 50	≤ 50	≤ 50
CCc1cc(Nc2ncc(Cl)c(Nc3ccc4nccnc4c3N(C)S(C)(=O)=O)n2)c(OC)nc1N1CCC(N2CCN(C)CC2)CC1 [Compound I-21]	50 to 500	≤ 50	≤ 50	≤ 50	≤ 50	≤ 50
CCc1cc(Nc2ncc(Cl)c(Nc3ccc4nccnc4c3N(C)S(C)(=O)=O)n2)c(OC(F)(F)F)cc1N1CCC(N2CCN(C)CC2)CC1 [Compound I-22]	50 to 500	50 to 500	50 to 500	≤ 50	≤ 50	≤ 50
C=Cc1cc(Nc2ncc(Cl)c(Nc3ccc4nccnc4c3N(C)S(C)(=O)=O)n2)c(OC(F)(F)F)cc1N1CCC(N2CCN(C)CC2)CC1 [Compound I-23]	≤ 50	≤ 50	≤ 50	≤ 50	≤ 50	≤ 50
COc1cc(N2CCC(N3CCN(C)CC3)CC2)ccc1Nc1ncc(F)c(Nc2ccc3nccnc3c2N(C)S(C)(=O)=O)n1 [Compound I-24]	50 to 500	50 to 500	50 to 500	50 to 500	50 to 500	50 to 500
COc1cc(N2CCC(N3CCN(C)CC3)CC2)c(C)cc1Nc1ncc(F)c(Nc2ccc3nccnc3c2N(C)S(C)(=O)=O)n1 [Compound I-25]	≤ 50	≤ 50	≤ 50	50 to 500	≤ 50	≤ 50
CCc1cc(Nc2ncc(F)c(Nc3ccc4nccnc4c3N(C)S(C)(=O)=O)n2)c(OC)cc1N1CCC(N2CCN(C)CC2)CC1 [Compound I-26]	≤ 50	≤ 50	≤ 50	≤ 50	≤ 50	≤ 50
COc1cc(N2CCC(N3CCN(C)CC3)CC2)ccc1Nc1ncc(C#N)c(Nc2ccc3nccnc3c2N(C)S(C)(=O)=O)n1 [Compound I-27]	500 to 2500	500 to 2500	50 to 500	500 to 2500	500 to 2500	500 to 2500
